Laboratory results taken from patent US7241581B2, “Methods of identifying compounds that modulate IL-4 receptor-mediated IgE synthesis utilizing a c-MYC protein” (Rigel Pharmaceuticals, Inc., priority 2002, dated 2007).

Columns and labels:
[1] = test system: IL-4 induced germline ε transcription; assay: Re-infection assay in naive A5T4 cells (BFP- vs BFP+ populations, GFP by FACS); assay type: cell-based, human; conditions: geometric mean GFP fluorescence of BFP- population divided by BFP+ population, IL-4 60 U/mL, 3 days
Protocol: The ability of peptide BR10A1 wt to inhibit germline ε transcription was confirmed in naive cells. Briefly, Phoenix cells were transfected with a retroviral vector encoding a BFP-BR10A1 wt peptide fusion as described in WO 99/58663 and WO 97/27213. Naïve A5T4 cells were infected with the resultant virions and grown for 3 days. The infected cells were stimulated with IL-4 (60 U/mL) and, after 3 days, the cells were assessed by FACS for BFP and GFP. […] The BFP fluorescence data corresponding to the BFP^+ and BFP^− populations are provided in Panel A. The GFP fluorescence data corresponding to the BFP^+ and BFP^− populations are presented in Panel B. The reporter ratio for this purpose is determined as the geometric mean of the GFP fluorescence of the BFP^− population divided by the geometric mean of the GFP fluorescence of the BFP^+ population. The reporter ratio for the BR10A1 in this re-infection assay was 1.27.

[2] = test system: endogenous germline ε promoter; assay: TAQMAN assay of endogenous germline ε promoter transcription in A5T4 cells; assay type: cell-based, human; conditions: relative expression units of +IL-4/+Dox to +IL-4/-Dox A5T4 cells; IL-4 60 U/ml, 3 days; average of 3 values
Protocol: The ability of peptide BR10A1 wt to inhibit transcription of an endogenous germline ε promoter was confirmed using a TAQMAN® assay (Roche Molecular, Alameda, Calif.). Briefly, A5T4 cells were infected with retrovirus capable of expressing peptide BR10A1 wt (prepared as described above). The cells were sorted for BFP^+ to select for infected cells. Infected cells were divided into two populations. One population was exposed to Dox (10 ng/ml). Both populations were stimulated with IL-4 (60 U/ml). After 3 days, the cells were pelleted and the pellets assayed for ε promoter transcription using a TAQMAN assay performed as described in Applied Biosystems Protocol 4310299 (available at http:www.appliedbiosystems.com). The primers and probe, which are specific for the transcription product driven by the A5T4 endogenous ε promoter, were as follows (the probe was labeled at the 5′-end with Fam and at the 3′-end with Tamra): […]

[3] = test system: endogenous germline α promoter; assay: TAQMAN assay of endogenous germline α promoter transcription in ST486 cells; assay type: cell-based; conditions: ST486 cells stimulated with TGF-β 40 ng/ml; average of 3 values
Protocol: The assay was similar to that described in the immediately preceding section, except that ST486 cells (ATCC # CRL-1647) engineered to express the tetracycline-regulated transactivator were infected and the infected cells were stimulated with TGF-β (40 ng/ml; Peprotech). The primers and probe, which are specific for the transcription product driven by the ST486 endogenous α promoter, were as follows (the probe was labeled at the 5′-end with Fam and at the 3′-end with Tamra): […]

[4] = target: T1, human c-Myc protein (Homo sapiens, UniProt P01106); assay: Yeast two hybrid (YTH) interaction assay, β-galactosidase; assay type: binding
T1 construct: expressed in transfected cells; prey cDNA library made from the A5T4 reporter line (human BJAB B-cells)
Protocol: Potential binding partners for peptide BR10A1 wt were identified in a β-galactosidase yeast two-hybrid (YTH) assay using peptide BR10A1 wt as bait and a cDNA library constructed from the A5T4 reporter cell line as prey. Binding was assessed by β-galactosidase quantification using BetaFluor (Novagen) as a substrate. A negative interaction control (no cDNA fused downstream of the GAL4 activation domain sequence) was also run. A general outline of the YTH assay is illustrated in FIG. 5A. Following clustering, filtering to remove non-specific bait hits (e.g., GFP and BFP), singletons and clusters recognized by 10 or more cDNA baits (based upon historical YTH assays), and prioritization, 30 prey clones were identified as hits.
Potential targets identified in the YTH assay were reconfirmed as generally outlined in FIG. 6. The cDNA clones identified as hits in the YTH assay were purified and rescreened for interaction with the BR10A1 wt peptide in a YTH assay. The hit clones were also screened in a control assay for interaction with the BFP using a vector (pGBKT7) that contained only the BFP and not the BR10A1 peptide. At this stage, 25 putative target clones remained.
The interaction of BR10A1 wt peptide and its mutants with the clones identified as potential targets for the peptide BR10A1 wt was then quantified in a β-galactosidase YTH assay. The YTH assay was performed in the manner described above. A general outline of this YTH assay is illustrated in FIG. 5B. For each clone tested, an interaction profile was developed by comparing the β-galactosidase activity of each mutant to that of the wild type peptide as described above.
The interaction of selected IOF, ROF and LOF mutants with different polypeptides encoded by the putative target clones were quantified using the YTH assay described above. Based on the YTH assay, for each putative target, the mutants were categorized into the following four interaction categories: (1) reduction of interaction (ROI); (2) loss of interaction (LOI); (3) increase of interaction (IOI); and (4) interactionally neutral (N), by assessing the binding affinity ratio of the mutant peptide and the wild type peptide (β-gal activity of mutant/wild type) to the putative target. The selection criteria for categorizing the interactions is shown on FIG. 8.

T1 sequence (P01106 whole entry): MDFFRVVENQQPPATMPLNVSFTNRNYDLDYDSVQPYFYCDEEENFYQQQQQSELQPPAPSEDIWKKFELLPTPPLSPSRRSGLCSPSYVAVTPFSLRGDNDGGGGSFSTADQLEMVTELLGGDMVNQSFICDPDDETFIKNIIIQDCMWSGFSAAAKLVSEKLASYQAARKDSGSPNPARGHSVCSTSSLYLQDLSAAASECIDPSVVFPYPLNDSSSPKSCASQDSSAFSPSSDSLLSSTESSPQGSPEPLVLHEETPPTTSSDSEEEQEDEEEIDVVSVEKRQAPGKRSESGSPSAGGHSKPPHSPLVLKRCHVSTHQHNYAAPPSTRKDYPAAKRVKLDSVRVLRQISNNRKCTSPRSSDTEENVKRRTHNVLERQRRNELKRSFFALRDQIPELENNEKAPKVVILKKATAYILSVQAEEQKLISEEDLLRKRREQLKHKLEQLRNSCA

MQRRESCITRSVEEGWGLFYLGP (peptide encoded by random oligo-BR10A1wt) [wild-type peptide from random library, expressed in cells as BFP-peptide fusion]
Reporter Ratio [1]: 1.27
endogenous ε inhibition ratio [2]: 2.18
endogenous α inhibition ratio [3]: 0.87
binding to human c-Myc protein in yeast two hybrid interaction assay [4]: found to bind
